Results published in US20230413808A1, “Bioactive complexes” (priority 2020, published 2023).

Key:
[1] = Visual interaction of active ingredient with polyelectrolyte PAA; type: physicochemical
Description: To determine interaction between polyelectrolytes (PE; Table 1) and active ingredients (AI; Table 2) aqueous stock solutions of about 200 g/L of the PE and of the active ingredients were prepared. The polyelectrolytes were diluted in water and stirred on magnetic stirrer for at least 30 minutes until a homogenous clear solution was obtained (ratios and amounts are presented in Table 4). The active ingredients were dissolved in water on magnetic stirrer or, if they weren't water soluble, suspended in water and milled by adding glass beads (1 mm) in a stainless steel metal beaker until they reach a volume-based average particle size below 20 μm (90% of particles below 20 μm), as determined by laser diffraction. After that the mixture was filtered with a sieve to remove glass beads and the filtrate was used for further analysis.
A polyelectrolyte solution, PAA or chitosan, was added to a 100-150 mL glass beaker, followed by water and an active ingredient solution/suspension. The mixture was stirred for at least 4 hours, and samples were observed after at least 16 hours. The visual observable interactions were divided into five categories (see Table 3). The categories were chosen by comparison to a blank sample containing the same concentration of active ingredient in water but without polyelectrolyte. […] Interactions were studied over a large range of active ingredient to polyelectrolyte ratios, including 10.000:1 (w/w), 1000:1 (w/w), 100:1 (w/w), 10:1 (w/w), 1:1 (w/w), 1:10 (w/w), 1:100 (w/w) and 1:1000) (w/w).

[2] = Visual interaction with polyanion sodium lignosulfonate; type: physicochemical; conditions: visible complex formation
Humectancy assay = type: physicochemical; conditions: dried at 54° C., then 97% relative humidity at 25° C.; weight after/before x 100
Description: The complexes of the interaction assay were used to conduct a humectancy assay. […] After reweighing on an analytical balance, the trays were placed in a climate chamber and stored for at least 2 days at 54° C. or until no further weight change was observed. […] The air tight box was 20 cm×12 cm×7 cm. In the box a chicken wire construct was used to create two levels with 10-20 ml of saturated solution of dipotassium sulfate in a petri dish in a lower level, and the samples in an upper level. Boxes were located into an incubator at 25° C. The boxes were incubated for at least 5 days at 25° C. before use to allow equilibration of temperature and humidity. Hereafter, the trays were reweighed.
The change in humectancy by combining a pesticide and polyelectrolyte is expressed as percent value by multiplying the sample weight after incubation (w2) with 100 divided with the sample weight before incubation (w1) using the following equation: […]
To evaluate the effect of the interaction of the active ingredient and polyelectrolyte on humectancy (synergetic/antagonistic/no effect), the determined Humectancy of the samples containing both active ingredient and polyelectrolyte “Humectancy (blend)” was divided by the theoretical value of Humectancy of the blend provided by respective proportion (% AI; % PE) of each pesticide and polyelectrolyte using the following equation: […]
According to this formula, a positive result of more than 1 is indicative of synergy.
The complexes obtained with the method of WO2010035118, with both ratios of 2:1 and 1:5 (PAA:AI) were tested for humectancy. […] For each sample, the test was carried in triplicate.
For each sample, the test was carried in triplicate.

[3] = test system: Lolium perenne (Ryegrass); assay: Herbicide efficacy of glyphosate on rye grass; type: in vivo; conditions: for Extra reduction in dry weight: complex formation with PAA vs without PAA, first statement of b170; for Extra reduction in dry weight (second statement): second statement of b170
Excerpt: (§1) The efficacy of glyphosate is often sub-optimal because after drying of the glyphosate active ingredient on the plant tissue the rate of uptake is reduced (dry glyphosate is taken up poorly by the plant tissue). A complex of glyphosate-polycation with improved humectancy properties will remain longer as a wet film on the plant tissue, thereby enhancing uptake of glyphosate in the plant tissue and enhancing its herbicidal activity. In this experiment the effect of a formed complex on efficacy of glyphosate was assessed. The experiment was performed with hard water (500 ppm CaCO3) and with soft water (50 ppm CaCO3).
(§2) The following method was used. Seeds of rye grass and clover were sown in 2 L plastic pots (10 seeds pot) and grown in Lentse Potgrond (Horticoop; Bleiswijk, the Netherlands) in a greenhouse at 22° C. and at light 16 h and dark 8 h, humidity 75%. The experiment was carried out with 2 pots (replications) per treatment. The pots were watered as to keep the plants growing optimal. At the four-five leaf stage, when plants reached a height of 15-20 cm, they were sprayed with the glyphosate treatments with and without PAA (formulations: see Table 12). The spray was such that the plants were wetted completely and uniform. 12 days after the glyphosate treatments, the fresh weight and dry weight of the parts of the plants that were above ground were measured (grams). For dry weight, plants were first dried in an oven at 67 degree Celsius for 48 hours and weight was measured.
(§3) With the method described above rye grass plants were sprayed with two glyphosate formulations: • A. 2700 ppm glyphosate plus 270 ppm complexed with PAA at a 10:1 ratio (glyphosate:PAA; w/w) (formulation see Table 12). • B. 2700 ppm glyphosate without PAA (formulation, see Table 12).

[4] = test system: Trifolium repens (Clover); assay: Herbicide efficacy of glyphosate on clover; type: in vivo
Excerpt: as §1, §2, §3

[5] = soft water, complex formation with PAA vs without PAA

O=C(O)CNCP(=O)(O)O [Glyphosate, N-(phosphonomethyl)glycine]
Visual observation category, Active ingredient: PAA ([1]; ratio active ingredient:PAA 1.000:1 (w/w)): N
Visual observation category, Active ingredient: PAA ([1]; ratio active ingredient:PAA 1:1 (w/w)): N
Visual observation category, Active ingredient: PAA ([1]; ratio active ingredient:PAA 1:10 (w/w)): N
Visual observation category, Active ingredient: PAA ([1]; ratio active ingredient:PAA 1:100 (w/w)): N
Visual observation category, Active ingredient: PAA ([1]; ratio active ingredient:PAA 1:1000 (w/w)): N
Visual observation category, Active ingredient: PAA ([1]; ratio active ingredient:PAA 10.000:1 (w/w)): N
Interaction with the polyanion sodium lignosulfonate [2]: did not form a visible complex
Humectancy (Humectancy assay): 231.3%
Extra reduction in dry weight ([3]; hard water): 56%
Extra reduction in dry weight (second statement) ([3]; hard water): 48%
Extra reduction in dry weight ([3]; soft water): 44%
Extra reduction in dry weight (second statement) ([3]; soft water): 46%
Extra reduction in dry weight ([4]; hard water, complex formation with PAA (Formulation A) vs without PAA (Formulation B)): 74%
Extra reduction in fresh weight ([4]; hard water, complex formation with PAA vs without PAA): 38%
Extra reduction in dry weight [4, 5]: 47%
Extra reduction in fresh weight [4, 5]: 44%
